Experimental data taken from ChEMBL document CHEMBL1143538 (Bioorg Med Chem Lett, 2005).
pKi: −log10 of the molar value.

Legend:
Type in all cases: cell-based
[1] = target: Delta-type opioid receptor (Homo sapiens, UniProt P41143); test: Binding affinity against Opioid receptor delta 1 expressed in CHO cells using [3H]Naltrindole as radioligand
Mu-type opioid receptor = Mu-type opioid receptor (Homo sapiens, UniProt P35372); test: Binding affinity against Opioid receptor mu 1 expressed in CHO cells using [3H]DAMGO as radioligand
Chain of Mu-type opioid receptor (P35372 whole entry): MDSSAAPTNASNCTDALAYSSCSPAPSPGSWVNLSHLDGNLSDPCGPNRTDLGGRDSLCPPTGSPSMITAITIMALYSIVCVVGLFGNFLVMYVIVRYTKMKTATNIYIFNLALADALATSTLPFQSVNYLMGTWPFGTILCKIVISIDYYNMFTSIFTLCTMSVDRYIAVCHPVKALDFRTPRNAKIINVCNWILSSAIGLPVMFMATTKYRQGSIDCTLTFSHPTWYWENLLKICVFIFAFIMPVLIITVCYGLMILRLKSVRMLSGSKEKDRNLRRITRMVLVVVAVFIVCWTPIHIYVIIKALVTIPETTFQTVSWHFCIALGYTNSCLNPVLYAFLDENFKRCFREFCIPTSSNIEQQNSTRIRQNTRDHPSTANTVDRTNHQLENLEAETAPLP

[2] = target: Kappa-type opioid receptor (Homo sapiens, UniProt P41145); test: Binding affinity against Opioid receptor kappa 1 expressed in CHO cells using [3H]U-69593 as radioligand
Chain of Kappa-type opioid receptor (P41145 whole entry): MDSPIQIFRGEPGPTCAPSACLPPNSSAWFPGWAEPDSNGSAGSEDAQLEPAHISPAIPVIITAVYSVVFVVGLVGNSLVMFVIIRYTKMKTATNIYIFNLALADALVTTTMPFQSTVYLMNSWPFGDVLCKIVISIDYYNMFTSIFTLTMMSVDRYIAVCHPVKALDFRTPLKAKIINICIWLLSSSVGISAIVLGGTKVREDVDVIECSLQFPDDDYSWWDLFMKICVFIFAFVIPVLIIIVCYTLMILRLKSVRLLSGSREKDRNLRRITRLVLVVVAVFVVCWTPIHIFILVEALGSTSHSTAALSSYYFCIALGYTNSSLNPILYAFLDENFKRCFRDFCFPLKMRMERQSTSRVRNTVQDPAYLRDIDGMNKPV

Chain of Delta-type opioid receptor (P41143 whole entry): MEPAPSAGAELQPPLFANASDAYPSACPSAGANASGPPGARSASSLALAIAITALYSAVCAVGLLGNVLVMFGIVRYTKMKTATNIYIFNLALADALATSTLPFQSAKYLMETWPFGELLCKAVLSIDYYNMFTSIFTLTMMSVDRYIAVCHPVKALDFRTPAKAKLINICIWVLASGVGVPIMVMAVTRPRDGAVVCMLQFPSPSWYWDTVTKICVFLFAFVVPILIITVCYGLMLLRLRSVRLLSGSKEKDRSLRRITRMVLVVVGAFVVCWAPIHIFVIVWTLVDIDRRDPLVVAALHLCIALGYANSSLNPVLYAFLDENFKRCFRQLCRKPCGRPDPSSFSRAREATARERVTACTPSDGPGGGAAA

Row | SMILES | pKi [1] | pKi (Mu-type opioid receptor) | pKi [2]
1 | NC(=O)c1ccc2c3c1O[C@H]1C(=O)CC[C@@]4(O)[C@@H](C2)N(CC2CC2)CC[C@]314 | 6.26 | 9.15 | 7.96
2 | NC(=O)c1ccc2c(c1O)[C@]13CCN(CC4CC4)[C@H](C2)[C@]1(O)CCC(=O)C3 [SAMIDORPHAN] | 8.59 | 10.28 | 9.64
3 | NC(=O)c1ccc2c(c1O)[C@]13CCN(CC4CCC4)[C@H](C2)[C@]1(O)CCC(=O)C3 | 8.38 | – | 9.57
4 | COc1c(C(N)=O)ccc2c1[C@]13CCN(CC4CC4)[C@H](C2)[C@]1(O)CCC(=O)C3 | 6.32 | 7.96 | 7.64
5 | O=C1CC[C@@]2(O)[C@H]3Cc4ccc(O)c(O)c4[C@@]2(CCN3CC2CC2)C1 | 6.89 | 7.77 | 8.66
